Measurements as given in patent publication US11753399B2, “Therapeutic compounds” (Gilead Sciences, Inc., priority 2018, dated 2023).
Like-named read-outs stand apart in the source and are kept apart here.

Tests used:
[1] = test system: HIV-IIIb; test: Test A: Antiviral Assay in MT4 Cells; format: cell-based, HIV-1; conditions: for inhibition at 0.01 µM: read-out: % inhibition at 0.01 μM; for inhibition at 0.2 µM: read-out: % inhibition at 0.20 μM
Procedure: (§1) MT-4 cells were next mixed with HIV-IIIb at a multiplicity of infection (m.o.i.) of 0.003 for 1 hour, after which time 35 μL of virus/cell mixture (2000 cells) was immediately added to each well containing 40 μL of diluted compound. The plates were then incubated at 37° C. for 5 days. After 5 days of incubation, 25 μl of 2× concentrated CellTiter-Glo Reagent (catalog #G7571, Promega Biosciences, Inc., Madison, Wis.) was added to each well containing MT-4 cells. Cell lysis was carried out by incubating at room temperature for 10 min and then chemiluminescence was read.

[2] = Test B: Cytotoxicity Assay (same protocol as Test A, uninfected cells); format: cell-based; conditions: human, uninfected MT-4 cells, CellTiter-Glo
Procedure: as §1, with “read. […] Compound cytotoxicity and the corresponding CC50 values was determined using the same protocol as described in the antiviral assay (Test A) except that uninfected cells were used.” for “read.”

[3] = Human immunodeficiency virus 1, MT4, 120 h, inhibition of virus-induced cell killing, from dose response curve at 0.01 μM (10 nM), MT-4 cells, HIV-IIIb, 5 days, values normalized to 100%
[4] = Human immunodeficiency virus 1, MT4, 120 h, inhibition of virus-induced cell killing, from dose response curve at 0.20 μM (200 nM), MT-4 cells, HIV-IIIb, 5 days, values normalized to 100%
[5] = Human immunodeficiency virus 1, IIIB, MT4, 120 h

| Structure (SMILES) | inhibition at 0.01 µM [1, 3] [%] | inhibition at 0.2 µM [1, 4] [%] | CC50 at 5 days [2] [µM] | inhibition at 0.01 µM [1, 5] [%] | inhibition at 0.2 µM [1, 5] [%] |
| --- | --- | --- | --- | --- | --- |
| Cn1nc(NS(=O)(=O)C2CC2)c2c(Cl)ccc(-c3ccc(C#CC(C)(C)S(=O)(=O)C4CC4)nc3[C@H](Cc3cc(F)cc(F)c3)NC(=O)Cn3nc(C(F)(F)F)c4c3C(F)(F)[C@@H]3C[C@H]43)c21 [Example 13] | 100 | 100 | > 57.1 | – | – |
| CCS(=O)(=O)Nc1nn(CC(F)F)c2c(-c3ccc(C#CC(C)(C)S(=O)(=O)C4CC4)nc3[C@H](Cc3cc(F)cc(F)c3)NC(=O)Cn3nc(C(F)F)c4c3C(F)(F)[C@@H]3C[C@H]43)cccc12 [Example 51] | 67 | 91 | 51.2 | – | – |
| CC(C)(C#Cc1ccc(-c2ccc(Cl)c3c(NS(=O)(=O)C4CC4)nn(CC(F)F)c23)c([C@H](Cc2cc(F)cc(F)c2)NC(=O)Cn2nc(C(F)F)c3c2C(F)(F)CCC3(F)F)n1)S(=O)(=O)C1CC1 [Example 33] | 97 | 97 | > 57.1 | – | – |
| CCS(=O)(=O)Nc1nn(C)c2c(-c3ccc(C#CC(C)(C)S(=O)(=O)C4CC4)nc3[C@H](Cc3cc(F)cc(F)c3)NC(=O)Cn3nc(C(F)(F)F)c4c3C(F)(F)[C@@H]3C[C@H]43)ccc(Cl)c12 [Example 7] | 94 | 94 | > 57.1 | – | – |
| Cn1nc(NS(C)(=O)=O)c2c(Cl)ccc(-c3ccc(C#CC(C)(C)S(=O)(=O)C4CC4)nc3[C@H](Cc3cc(F)cc(F)c3)NC(=O)Cn3nc(C(F)(F)F)cc3C3CC3)c21 [Example 44] | 87 | 92 | > 54.8 | – | – |
| Cn1nc(NS(C)(=O)=O)c2c(Cl)ccc(-c3ccc(C#CC(C)(C)S(=O)(=O)C4CC4)nc3[C@H](Cc3cc(F)cc(F)c3)NC(=O)Cn3cnnn3)c21 [Example 45] | 96 | 97 | 20.1 | – | – |
| Cn1nc(NS(C)(=O)=O)c2c(Cl)ccc(-c3ccc(C#CC(C)(C)S(=O)(=O)C4CC4)nc3[C@H](Cc3cc(F)cc(F)c3)NC(=O)Cn3cc(C(F)(F)F)nc3C3CC3)c21 [Example 64] | 45 | 94 | > 50 | – | – |
| CCS(=O)(=O)Nc1nn(CC(F)F)c2c(-c3ccc(C#CC(C)(C)S(=O)(=O)C4CC4)nc3[C@H](Cc3cc(F)cc(F)c3)NC(=O)Cn3nc(C(F)F)c4c3C(F)(F)[C@@H]3C[C@H]43)ccc(Cl)c12 [Example 9] | 96 | 96 | > 57.1 | – | – |
| Cn1nc(NS(C)(=O)=O)c2c(Cl)ccc(-c3ccc(C#CC(C)(C)S(=O)(=O)C4CC4)nc3[C@H](Cc3cc(F)cc(F)c3)NC(=O)Cn3nc(C(F)F)c4c3C(F)(F)[C@@H]3C[C@H]43)c21 [Example 4] | – | – | – | 92 | 92 |
| CC(C)(C#Cc1ccc(-c2ccc(Cl)c3c(NS(=O)(=O)C4CC4)nn(CC(F)(F)F)c23)c([C@H](Cc2cc(F)cc(F)c2)NC(=O)Cn2nc(C(F)(F)F)c3c2C(F)(F)[C@@H]2C[C@H]32)n1)S(=O)(=O)C1CC1 [Example 36] | 93 | 93 | > 57.1 | – | – |
| CC(C)(C#Cc1ccc(-c2ccc(Cl)c3c(NS(C)(=O)=O)nn(CC(F)F)c23)c([C@H](Cc2cc(F)cc(F)c2)NC(=O)Cn2nc(C(F)F)c3c2C(F)(F)CCC3(F)F)n1)S(=O)(=O)C1CC1 [Example 42] | 89 | 89 | > 57.1 | – | – |
| Cn1nc(NS(=O)(=O)C2(C)CC2)c2c(Cl)ccc(-c3ccc(C#CC(C)(C)S(=O)(=O)C4CC4)nc3[C@H](Cc3cc(F)cc(F)c3)NC(=O)Cn3nc(C(F)(F)F)c4c3C(F)(F)[C@@H]3C[C@H]43)c21 [Example 21] | 100 | 100 | > 57.1 | – | – |
| CC(C)(C#Cc1ccc(-c2cccc3c(NS(=O)(=O)C4CC4)nn(CC(F)F)c23)c([C@H](Cc2cc(F)cc(F)c2)NC(=O)Cn2nc(C(F)F)c3c2C(F)(F)[C@@H]2C[C@H]32)n1)S(=O)(=O)C1CC1 [Example 52] | 93 | 93 | > 57.1 | – | – |
